Measurements published in PubChem BioAssay (NCI).
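Dose response: 5 concentrations. Exposure: 48 h. Format: 96-well plates. Endpoint: linear interpolation; highest concentration if not reached. GI50 marks 50% less growth. TGI denotes the concentration required for complete inhibition of growth.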

Columns and labels:
Assay in all cases: inhibition of tumour cell growth, NCI panel, 48 h
786-0 renal = system: 786-0 renal
A549 NSCLC = system: A549 NSCLC
COLO 205 colon = system: COLO 205 colon
DU-145 prostate = system: DU-145 prostate
HCT-116 colon = system: HCT-116 colon
HL-60(TB) leukemia = system: HL-60(TB) leukemia
K-562 leukemia = system: K-562 leukemia
KM12 colon = system: KM12 colon
MALME-3M melanoma = system: MALME-3M melanoma
MDA-MB-435 = system: MDA-MB-435
MOLT-4 leukemia = system: MOLT-4 leukemia
NCI-H226 lung = system: NCI-H226 lung
NCI-H522 lung = system: NCI-H522 lung
OVCAR-5 ovarian = system: OVCAR-5 ovarian
OVCAR-8 ovarian = system: OVCAR-8 ovarian
RXF 393 renal = system: RXF 393 renal
SK-MEL-2 melanoma = system: SK-MEL-2 melanoma
SK-MEL-5 melanoma = system: SK-MEL-5 melanoma
SK-OV-3 ovarian = system: SK-OV-3 ovarian
SW-620 colon = system: SW-620 colon
UACC-257 melanoma = system: UACC-257 melanoma
MDA-MB-231 breast = system: MDA-MB-231 breast
SNB-75 CNS = system: SNB-75 CNS
HCC-2998 colon = system: HCC-2998 colon
HCT-15 colon = system: HCT-15 colon
HT29 colon = system: HT29 colon
IGROV1 ovarian = system: IGROV1 ovarian
M14 melanoma = system: M14 melanoma
MCF7 breast = system: MCF7 breast
SK-MEL-28 melanoma = system: SK-MEL-28 melanoma
SN12C renal = system: SN12C renal
SR leukemia = system: SR leukemia
BT-549 breast = system: BT-549 breast
EKVX NSCLC = system: EKVX NSCLC
HOP-62 NSCLC = system: HOP-62 NSCLC
HS 578T breast = system: HS 578T breast
LOX IMVI melanoma = system: LOX IMVI melanoma
NCI-H23 lung = system: NCI-H23 lung
SF-268 CNS = system: SF-268 CNS
SNB-19 CNS = system: SNB-19 CNS
UACC-62 melanoma = system: UACC-62 melanoma

CNc1ccc(C(=O)CC(O)CCC(C)C2OC(=O)CC(O)CC(=O)CC(O)CC(O)CC(O)CC(O)CC3(O)CC(O)C(C(=O)N4CCOCC4)C(CC(OC4OC(C)C(O)C(N)C4O)/C=C/C=C/C=C/C=C\C=C/C=C/C=C/C2C)O3)cc1 (stereo unspecified) gave a TGI (786-0 renal) of over 100 µM, a TGI (A549 NSCLC) of over 100 µM and a TGI (COLO 205 colon) of over 100 µM. For the same compound, the TGI (DU-145 prostate) was 3.31 µM, the TGI (HCT-116 colon) was over 100 µM and the TGI (HL-60(TB) leukemia) was over 100 µM. The TGI (K-562 leukemia) was over 100 µM, the TGI (KM12 colon) was 0.747 µM and the TGI (MALME-3M melanoma) was 0.4 µM. The TGI (MDA-MB-435) was 0.798 µM, the TGI (MOLT-4 leukemia) was over 100 µM and the TGI (NCI-H226 lung) was 0.553 µM. It also gave a TGI (NCI-H522 lung) of 0.55 µM, a TGI (OVCAR-5 ovarian) of over 100 µM and a TGI (OVCAR-8 ovarian) of over 100 µM. It also gave a TGI (RXF 393 renal) of 0.637 µM, a TGI (SK-MEL-2 melanoma) of 8.55 µM and a TGI (SK-MEL-5 melanoma) of 0.462 µM. The TGI (SK-OV-3 ovarian) was over 100 µM, the TGI (SW-620 colon) was over 100 µM and the TGI (UACC-257 melanoma) was 0.384 µM.

Cn1cc(-c2nc(-c3c[nH]c4ccncc34)cs2)c2cc(Br)ccc21 showed a GI50 (DU-145 prostate) of 1.82 µM, a TGI (DU-145 prostate) of 3.28 µM and a GI50 (MDA-MB-231 breast) of 1.41 µM. It also gave a TGI (MDA-MB-231 breast) of 2.84 µM, a GI50 (OVCAR-5 ovarian) of 1.81 µM and a TGI (OVCAR-5 ovarian) of 3.27 µM. The GI50 (SK-MEL-2 melanoma) was 2 µM, the TGI (SK-MEL-2 melanoma) was 3.62 µM and the GI50 (SK-MEL-5 melanoma) was 1.6 µM. The TGI (SK-MEL-5 melanoma) was 2.95 µM, the GI50 (SNB-75 CNS) was 1.23 µM and the TGI (SNB-75 CNS) was 2.54 µM. It also gave a GI50 (UACC-257 melanoma) of 1.99 µM and a TGI (UACC-257 melanoma) of 3.52 µM.

COc1ccc(CN2c3ccccc3Sc3ccccc32)c(F)c1 gave a GI50 (HCC-2998 colon) of 5.06 µM, a TGI (HCC-2998 colon) of over 100 µM and a GI50 (HCT-116 colon) of 0.0398 µM. It also gave a TGI (HCT-116 colon) of over 100 µM, a GI50 (HCT-15 colon) of 0.0379 µM and a TGI (HCT-15 colon) of over 100 µM. The GI50 (HT29 colon) was 0.035 µM, the TGI (HT29 colon) was over 100 µM and the GI50 (IGROV1 ovarian) was 4.56 µM. It also gave a TGI (IGROV1 ovarian) of over 100 µM, a GI50 (K-562 leukemia) of 0.038 µM and a TGI (K-562 leukemia) of over 100 µM. For the same compound, the GI50 (KM12 colon) was 0.0432 µM, the TGI (KM12 colon) was over 100 µM and the GI50 (M14 melanoma) was 0.0381 µM. The TGI (M14 melanoma) was over 100 µM, the GI50 (MCF7 breast) was 0.0327 µM and the TGI (MCF7 breast) was over 100 µM. The GI50 (MDA-MB-231 breast) was 5.09 µM, the TGI (MDA-MB-231 breast) was over 100 µM and the GI50 (NCI-H226 lung) was 13 µM. The TGI (NCI-H226 lung) was over 100 µM, the GI50 (OVCAR-5 ovarian) was 4.39 µM and the TGI (OVCAR-5 ovarian) was over 100 µM. The GI50 (SK-MEL-28 melanoma) was 5.05 µM, the TGI (SK-MEL-28 melanoma) was over 100 µM and the GI50 (SN12C renal) was 10.6 µM. The TGI (SN12C renal) was over 100 µM, the GI50 (SR leukemia) was 0.0596 µM and the TGI (SR leukemia) was over 100 µM. It also gave a GI50 (SW-620 colon) of 0.0363 µM, a TGI (SW-620 colon) of over 100 µM and a GI50 (UACC-257 melanoma) of over 100 µM. It also gave a TGI (UACC-257 melanoma) of over 100 µM.

COc1ccc2[nH]c(O)c(N=NC(=O)c3oc4ccccc4c3C)c2c1 showed a GI50 (BT-549 breast) of 5.38 µM, a TGI (BT-549 breast) of 33.7 µM and a GI50 (EKVX NSCLC) of 2.94 µM. It also gave a TGI (EKVX NSCLC) of over 100 µM, a GI50 (HL-60(TB) leukemia) of over 100 µM and a TGI (HL-60(TB) leukemia) of over 100 µM. The GI50 (HOP-62 NSCLC) was 1.92 µM, the TGI (HOP-62 NSCLC) was 4.02 µM and the GI50 (HS 578T breast) was 2.41 µM. For the same compound, the TGI (HS 578T breast) was 7.72 µM, the GI50 (LOX IMVI melanoma) was 3.16 µM and the TGI (LOX IMVI melanoma) was over 100 µM. The GI50 (MDA-MB-231 breast) was 2.07 µM, the TGI (MDA-MB-231 breast) was 5.1 µM and the GI50 (NCI-H23 lung) was 1.86 µM. It also gave a TGI (NCI-H23 lung) of 4.43 µM, a GI50 (NCI-H522 lung) of 6.07 µM and a TGI (NCI-H522 lung) of over 100 µM. For the same compound, the GI50 (OVCAR-8 ovarian) was 3.22 µM, the TGI (OVCAR-8 ovarian) was over 100 µM and the GI50 (SF-268 CNS) was 5.18 µM. For the same compound, the TGI (SF-268 CNS) was 56.8 µM, the GI50 (SK-MEL-2 melanoma) was 2.56 µM and the TGI (SK-MEL-2 melanoma) was 6.62 µM. For the same compound, the GI50 (SN12C renal) was 2.82 µM, the TGI (SN12C renal) was over 100 µM and the GI50 (SNB-19 CNS) was 3.45 µM. The TGI (SNB-19 CNS) was 16.2 µM, the GI50 (SNB-75 CNS) was 1.25 µM and the TGI (SNB-75 CNS) was 2.75 µM. For the same compound, the GI50 (UACC-62 melanoma) was 5.19 µM and the TGI (UACC-62 melanoma) was over 100 µM.
